From patent US20060069132A1, “Azolecarboxamide herbicides” (priority 2004, published 2006)

Tests used:
velvetleaf = experiment: Test A pre-/postemergence herbicide test; assay type: in vivo, Abutilon theophrasti
Outline: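 Plants are held in greenhouse about ten days after treatment, then compared with untreated controls and scored 0 (no effect) to 100 (complete control). Preemergence dosing is a directed soil spray on sown sandy loam; postemergence dosing is spray to runoff at 2–10 cm height.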

barnyardgrass = experiment: Test B flooded paddy test; assay type: in vivo, Echinochloa crus-galli; settings: 1000 g ai/ha, visual rating, scale 0 to 100 (0 no effect, 100 complete control), 13 to 15 days
Outline: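 After treating 2-leaf paddy plants or 2–18 cm postemergence plants (1 to 4 leaves) with formulated chemical, researchers kept them in a greenhouse for 13–15 days. Effects were judged visually versus controls: 0 indicates none, 100 total control.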

yellow nutsedge = experiment: Test C pre-/postemergence herbicide test; assay type: in vivo, Cyperus esculentus; settings: for Nutsedge, Yellow plant response rating: 500 g ai/ha
Outline: (§1)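 Greenhouse-grown plants were evaluated visually 12 to 14 days after treatment, with 100 meaning complete control and 0 no effect. Application was preemergence, or postemergence at 2 to 18 cm.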

rice = experiment: Test B pre-/postemergence herbicide test; assay type: in vivo, Oryza sativa; settings: preemergence
Outline: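 Species tested were Echinochloa crus-galli, Ipomoea coccinea, Xanthium strumarium and Oryza sativa, treated both before emergence and at the 1- to 4-leaf stage; rice and barnyardgrass were also tested under flooding at 2 leaves. Greenhouse incubation lasted 13–15 days before visual 0–100 scoring.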

common ragweed = experiment: Test C pre-/postemergence herbicide test; assay type: in vivo, Ambrosia elatior; design: key to Plant response rating, Ragweed: 0 = no effect, 100 = complete control; settings: for Ragweed plant response rating: 500 g ai/ha
Outline: as §1

goosegrass = experiment: Test C pre-/postemergence herbicide test; assay type: in vivo, Eleusine indica; settings: for Goosegrass plant response rating: 500 g ai/ha
Outline: as §1

[1] = tested on: smallflower umbrella sedge; experiment: Test C flooded paddy test; assay type: in vivo, Cyperus difformis; settings: for Plant response rating, Sedge, Umbrella: 500 g ai/ha, visual rating after 12 to 14 days
woolly cupgrass = experiment: Test C pre-/postemergence herbicide test; assay type: in vivo, Eriochloa villosa; settings: for Cupgrass, Woolly plant response rating: 500 g ai/ha
Outline: as §1

cocklebur = experiment: Test B pre-/postemergence herbicide test; assay type: in vivo, Xanthium strumarium
Outline: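 Flooded paddy rice and barnyardgrass were treated at the 2-leaf stage; upland plantings received compound either on sown seed or on 1- to 4-leaf seedlings. All were kept 13–15 days in a greenhouse and scored visually, 0–100, relative to untreated plants.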

[2] = Postemergence, 2000 g ai/ha, 0 to 100 scale, 0 no effect, 100 complete control
[3] = Preemergence, 500 g ai/ha, visual rating, 0 to 100 scale (0 no effect, 100 complete control)
[4] = Preemergence, 2000 g ai/ha, visual rating, 0 to 100 scale (0 no effect, 100 complete control)
[5] = 125 g ai/ha, scale 0 (no effect) to 100 (complete control), visual, 12 to 14 days, preemergence
[6] = Preemergence, scale 0 to 100, 0 no effect, 100 complete control
[7] = 125 g ai/ha, 0 to 100 scale, 0 is no effect, 100 is complete control
[8] = 62 g ai/ha, scale 0 to 100 (0 no effect, 100 complete control)
[9] = 125 g ai/ha, scale of 0 to 100, 0 is no effect, 100 is complete control
[10] = 250 g ai/ha, scale of 0 to 100, 0 is no effect, 100 is complete control
[11] = scale 0 to 100 (0 no effect, 100 complete control)
[12] = 250 g ai/ha, scale 0 to 100 (0 no effect, 100 complete control), visual, 12 to 14 days, preemergence
[13] = Postemergence, 500 g ai/ha, visual rating after 13 to 15 days, scale 0 (no effect) to 100 (complete control)
[14] = Preemergence, 500 g ai/ha, scale 0 to 100
[15] = postemergence, 125 g ai/ha, visual rating, scale 0 (no effect) to 100 (complete control)
[16] = preemergence, 125 g ai/ha, 0 to 100 scale, 0 is no effect, 100 is complete control
[17] = Postemergence, 500 g ai/ha, 0 to 100 scale, 0 no effect, 100 complete control
[18] = Postemergence, 250 g ai/ha, scale 0 to 100, 0 no effect, 100 complete control
[19] = postemergence, 125 g ai/ha, scale 0 to 100
[20] = postemergence, 62 g ai/ha, scale 0 to 100

CCCN1CCc2c(NC(=O)c3cc(C(C)(C)C)nn3CC)cccc2C1=O [Compound 65]
Plant response rating, Velvetleaf (velvetleaf; [2]): 25 | Velvetleaf plant response rating (velvetleaf; [3]): 10 | Velvetleaf plant response rating (velvetleaf; [4]): 30 | Barnyardgrass plant response rating (barnyardgrass): 80 | Plant response rating (0 = no effect, 100 = complete control), Nutsedge, Yellow (yellow nutsedge; 62 g ai/ha, preemergence): 0 | Plant response rating, Nutsedge, Yellow (yellow nutsedge; [5]): 0 | Nutsedge, Yellow plant response rating (yellow nutsedge; [6]): 0 | Plant response rating, Rice (rice; [7]): 10 | Plant response rating (0 = no effect, 100 = complete control), Ragweed (common ragweed; 62 g ai/ha, preemergence): 0 | Plant response rating, Ragweed (common ragweed; [5]): 0 | Ragweed plant response rating (common ragweed; [6]): 60 | Plant response rating (0 = no effect, 100 = complete control), Goosegrass (goosegrass; 62 g ai/ha, preemergence): 0 | Plant response rating, Goosegrass (goosegrass; [5]): 30 | Goosegrass plant response rating (goosegrass; [6]): 80 | Sedge, Umbrella plant response rating [1, 8]: 0 | Sedge, Umbrella plant response rating [1, 9]: 20 | Sedge, Umbrella plant response rating [1, 10]: 75 | Plant response rating, Sedge, Umbrella [1, 11]: 80 | Plant response rating (0 = no effect, 100 = complete control), Cupgrass, Woolly (woolly cupgrass; 62 g ai/ha, preemergence): 0 | Plant response rating, Cupgrass, Woolly (woolly cupgrass; [5]): 0 | Plant response rating, Cupgrass, Woolly (woolly cupgrass; [12]): 10 | Cupgrass, Woolly plant response rating (woolly cupgrass; [6]): 10 | Plant response rating, Cocklebur (cocklebur; [13]): 80 | Cocklebur plant response rating (cocklebur; [14]): 0 | Cocklebur plant response rating (cocklebur; [15]): 60 | Plant response rating, Cocklebur (cocklebur; [16]): 0

CCOC(=O)c1cccc(NC(=O)c2cc(C(C)(C)C)nn2CC)c1C [Compound 88]
Velvetleaf plant response rating (velvetleaf; [17]): 40 | Plant response rating, Velvetleaf (velvetleaf; [2]): 55 | Velvetleaf plant response rating (velvetleaf; [3]): 45 | Velvetleaf plant response rating (velvetleaf; [4]): 70 | Barnyardgrass plant response rating (barnyardgrass): 70 | Plant response rating (0 = no effect, 100 = complete control), Nutsedge, Yellow (yellow nutsedge; 62 g ai/ha, preemergence): 0 | Plant response rating, Nutsedge, Yellow (yellow nutsedge; [5]): 0 | Nutsedge, Yellow plant response rating (yellow nutsedge; [6]): 0 | Plant response rating, Rice (rice; [7]): 20 | Plant response rating (0 = no effect, 100 = complete control), Ragweed (common ragweed; 62 g ai/ha, preemergence): 0 | Plant response rating, Ragweed (common ragweed; [5]): 0 | Ragweed plant response rating (common ragweed; [6]): 20 | Plant response rating (0 = no effect, 100 = complete control), Goosegrass (goosegrass; 62 g ai/ha, preemergence): 60 | Plant response rating, Goosegrass (goosegrass; [5]): 90 | Goosegrass plant response rating (goosegrass; [6]): 100 | Sedge, Umbrella plant response rating [1, 8]: 0 | Sedge, Umbrella plant response rating [1, 9]: 50 | Sedge, Umbrella plant response rating [1, 10]: 80 | Plant response rating, Sedge, Umbrella [1, 11]: 80 | Plant response rating (0 = no effect, 100 = complete control), Cupgrass, Woolly (woolly cupgrass; 62 g ai/ha, preemergence): 20 | Plant response rating, Cupgrass, Woolly (woolly cupgrass; [5]): 30 | Plant response rating, Cupgrass, Woolly (woolly cupgrass; [12]): 80 | Cupgrass, Woolly plant response rating (woolly cupgrass; [6]): 90 | Plant response rating, Cocklebur (cocklebur; [13]): 50 | Cocklebur plant response rating (cocklebur; [14]): 0 | Cocklebur plant response rating (cocklebur; [15]): 10 | Plant response rating, Cocklebur (cocklebur; [16]): 0

CCOC(=O)c1cc(NC(=O)c2cc(C(C)(C)C)nn2CC)ccc1OC [Compound 96]
Velvetleaf plant response rating (velvetleaf; [17]): 70 | Plant response rating, Velvetleaf (velvetleaf; [2]): 70 | Velvetleaf plant response rating (velvetleaf; [3]): 95 | Velvetleaf plant response rating (velvetleaf; [4]): 100 | Barnyardgrass plant response rating (barnyardgrass): 80 | Plant response rating (0 = no effect, 100 = complete control), Nutsedge, Yellow (yellow nutsedge; 62 g ai/ha, preemergence): 0 | Plant response rating, Nutsedge, Yellow (yellow nutsedge; [5]): 0 | Nutsedge, Yellow plant response rating (yellow nutsedge; Postemergence, scale 0 to 100): 5 | Plant response rating, Nutsedge, Yellow (yellow nutsedge; [18]): 5 | Nutsedge, Yellow plant response rating (yellow nutsedge; [6]): 10 | Plant response rating, Nutsedge, Yellow (yellow nutsedge; [19]): 0 | Plant response rating, Nutsedge, Yellow (yellow nutsedge; [20]): 0 | Plant response rating, Rice (rice; 500 g ai/ha, visual rating 0-100, 0 no effect, 100 complete control): 70 | Plant response rating, Rice (rice; [7]): 60 | Plant response rating (0 = no effect, 100 = complete control), Ragweed (common ragweed; 62 g ai/ha, preemergence): 50 | Plant response rating, Ragweed (common ragweed; [5]): 90 | Ragweed plant response rating (common ragweed; Postemergence, scale 0 to 100): 85 | Plant response rating, Ragweed (common ragweed; [18]): 80 | Ragweed plant response rating (common ragweed; [6]): 100 | Plant response rating, Ragweed (common ragweed; [19]): 50 | Plant response rating, Ragweed (common ragweed; [20]): 50 | Plant response rating (0 = no effect, 100 = complete control), Goosegrass (goosegrass; 62 g ai/ha, preemergence): 30 | Plant response rating, Goosegrass (goosegrass; [5]): 80 | Goosegrass plant response rating (goosegrass; Postemergence, scale 0 to 100): 5 | Plant response rating, Goosegrass (goosegrass; [18]): 5 | Goosegrass plant response rating (goosegrass; [6]): 95 | Plant response rating, Goosegrass (goosegrass; [19]): 5 | Plant response rating, Goosegrass (goosegrass; [20]): 5 | Sedge, Umbrella plant response rating [1, 8]: 90 | Sedge, Umbrella plant response rating [1, 9]: 90 | Sedge, Umbrella plant response rating [1, 10]: 90 | Plant response rating, Sedge, Umbrella [1, 11]: 95 | Plant response rating (0 = no effect, 100 = complete control), Cupgrass, Woolly (woolly cupgrass; 62 g ai/ha, preemergence): 5 | Plant response rating, Cupgrass, Woolly (woolly cupgrass; [5]): 10 | Plant response rating, Cupgrass, Woolly (woolly cupgrass; [12]): 20 | Cupgrass, Woolly plant response rating (woolly cupgrass; Postemergence, scale 0 to 100): 50 | Plant response rating, Cupgrass, Woolly (woolly cupgrass; [18]): 30 | Cupgrass, Woolly plant response rating (woolly cupgrass; [6]): 70 | Plant response rating, Cupgrass, Woolly (woolly cupgrass; [19]): 30 | Plant response rating, Cupgrass, Woolly (woolly cupgrass; [20]): 5 | Plant response rating, Cocklebur (cocklebur; 500 g ai/ha, visual rating 0-100, 0 no effect, 100 complete control, preemergence): 0 | Plant response rating, Cocklebur (cocklebur; [13]): 100 | Cocklebur plant response rating (cocklebur; [15]): 90 | Plant response rating, Cocklebur (cocklebur; [16]): 0
